Measured values: article PMC11078990, “Identification and characterization of small molecule inhibitors of the LINE-1 retrotransposon endonuclease” (Nature Communications, 2024)
Values joined by “and” are separate entries in the source; they are usually repeats but may differ in a detail not shown here. Identical values can stand only once. Like-named read-outs stand apart in the source and are kept apart here.

Assays:
[1] = test system: HeLa Tet-On cells; details: human
[2] = test system: substrate oligonucleotide used in the EN activity assay; assay type: binding; design: key to Binding Detected? (Y/N): Binding Detected? (Y/N); Binding Detected? (Y/N)
[3] = target: T1, APE1 (Homo sapiens, UniProt P27695); assay: APE1 fluorescent oligonucleotide activity assay (abasic site substrate); assay type: biochemical; details: for Percent APE1 activity, average / Percent APE1 activity, replicates: 250 µM, Supplementary Fig. 6b; for Percent APE1 activity, average: n=3; for Percent APE1 activity, replicates: replicates 1-3; for activity at 25 µM: read-out: APE1 activity (%)
T1 construct: purchased New England Biolabs (NEB) M0282S

[4] = target: L1 EN (LINE-1 retrotransposon endonuclease domain) (Homo sapiens, UniProt O00370, N5T); assay: Fluorescent oligonucleotide EN nicking activity assay; assay type: biochemical
[5] = test system: L1 retrotransposition; assay: HeLa dual-luciferase L1 retrotransposition assay; assay type: cell-based, human; details: for L1 retrotransposition, average: average of 4 replicates
[6] = compound at 25 μM, average of 3 replicates
[7] = inhibitors at 25 μM, relative to 0 μM inhibitor control, mean ± s.d., 3 independent experiments
[8] = [Inhibitor] 5 μM, technical replicates 1-3, Fig. 2b source data, 5 µM
[9] = [Inhibitor] 25 μM, technical replicates 1-3, Fig. 2b source data, 25 µM
[10] = [Inhibitor] 25 μM, technical replicates 1-3, Fig. 2b source data, read-out: EN activity, percent of no inhibitor control
[11] = [Inhibitor] 100 μM, technical replicates 1-3, Fig. 2b source data, 100 µM
[12] = [Inhibitor] 100 μM, technical replicates 1-3, Fig. 2b source data, read-out: EN activity, percent of no inhibitor control
[13] = [Inhibitor] 250 μM, technical replicates 1-3, Fig. 2b source data, 250 µM
[14] = [Inhibitor] 250 μM, technical replicates 1-3, Fig. 2b source data, read-out: EN activity, percent of no inhibitor control
[15] = [Inhibitor] 500 μM, technical replicates 1-3, Fig. 2b source data, 500 µM
[16] = [Inhibitor] 500 μM, technical replicates 1-3, Fig. 2b source data, read-out: EN activity, percent of no inhibitor control
[17] = [Inhibitor] 1000 μM, technical replicates 1-3, Fig. 2b source data, 1000 µM
[18] = [Inhibitor] 1000 μM, technical replicates 1-3, Fig. 2b source data, read-out: EN activity, percent of no inhibitor control
[19] = [Inhibitor] 2500 μM, technical replicates 1-3, Fig. 2b source data, 2500 µM
[20] = read-out: EN activity, percent of no inhibitor control
[21] = [Inhibitor] 50 μM, technical replicates 1-3, Fig. 2b source data, 50 µM

Sequence of L1 EN (LINE-1 retrotransposon endonuclease domain) (O00370 1-239 N5T): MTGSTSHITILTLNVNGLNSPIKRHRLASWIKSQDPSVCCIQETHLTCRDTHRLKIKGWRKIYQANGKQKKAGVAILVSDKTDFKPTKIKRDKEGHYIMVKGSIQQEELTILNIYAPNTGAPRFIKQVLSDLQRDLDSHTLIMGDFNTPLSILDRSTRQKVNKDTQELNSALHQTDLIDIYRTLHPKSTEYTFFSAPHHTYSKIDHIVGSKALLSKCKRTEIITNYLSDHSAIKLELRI

## COc1ccc(OC)c(NS(=O)(=O)c2ccc(NS(=O)(=O)c3cccc([N+](=O)[O-])c3)cc2)c1 [AD36]
[1]; 48 h, 25 μM
  PrestoBlue (viability), average: 15.2
[2]
  Binding Detected? (Y/N): N
[3]
  Percent APE1 activity, average: 108.9%
  Percent APE1 activity, replicates: 115.202% and 104.299% and 107.269%
[3]; compound at 25 μM, Replicate 1
  APE1 percent activity, Replicate 1: 121.786%
[3]; compound at 25 μM, Replicate 2
  APE1 percent activity, Replicate 2: 104.892%
[3]; compound at 25 μM, Replicate 3
  APE1 percent activity, Replicate 3: 127.866%
[3]; [6]
  APE1 percent activity, average: 118.181%
[3]; [7]
  activity at 25 µM: 118 ± 11.9%
[4]; [8]
  EN activity, percent of no inhibitor control: 91.0252% and 84.1869%
[4]; [Inhibitor] 5 μM, technical replicates 1-3, Fig. 2b source data, read-out: EN activity, percent of no inhibitor control
  remaining activity at 5 µM: 89.6%
[4]; [9]
  EN activity, percent of no inhibitor control: 101.21% and 100.403%
[4]; [10]
  remaining activity at 25 µM: 82%
[4]; [11]
  EN activity, percent of no inhibitor control: 79.4211% and 84.6024%
[4]; [12]
  remaining activity at 100 µM: 96.7%
[4]; [13]
  EN activity, percent of no inhibitor control: 66.0801% and 55.4717%
[4]; [14]
  remaining activity at 250 µM: 47.9%
[4]; [15]
  EN activity, percent of no inhibitor control: 50.9528% and 49.6683%
[4]; [16]
  remaining activity at 500 µM: 60.1%
[4]; [Inhibitor] 750 μM, technical replicates 1-3, Fig. 2b source data, 750 µM
  EN activity, percent of no inhibitor control: 44.0742% and 35.8636%
[4]; [Inhibitor] 750 μM, technical replicates 1-3, Fig. 2b source data, read-out: EN activity, percent of no inhibitor control
  remaining activity at 750 µM: 31.6%
[4]; [17]
  EN activity, percent of no inhibitor control: 29.1344% and 22.6241%
[4]; [18]
  remaining activity at 1000 µM: 19.6%
[4]; [Inhibitor] 1750 μM, technical replicates 1-3, Fig. 2b source data, 1750 µM
  EN activity, percent of no inhibitor control: 17.5242% and 11.215% and 25.1816%
[4]; [19]
  EN activity, percent of no inhibitor control: 18.2597% and 42.0507% and 24.6475%
[5]; 0.5 μM inhibitor, Figure 4b
  L1 retrotransposition, average: 4.647
[5]; 1 μM inhibitor, Figure 4b
  L1 retrotransposition, average: 4.699
[5]; 5 μM inhibitor, Figure 4b
  L1 retrotransposition, average: 4.066
[5]; 10 μM inhibitor, Figure 4b
  L1 retrotransposition, average: 4.169
[5]; 25 μM inhibitor, Figure 4b
  L1 retrotransposition, average: 2.81
[5]; 50 μM inhibitor, Figure 4b
  L1 retrotransposition, average: 1.253
[5]; Figure 4a Graph 4, 25μM, 0μM average 3.426
  Luciferase (retrotransposition), average: 1.266
[5]; Figure 4a Graph 4, 25μM, Replicates 1-4, 0μM average 3.426
  Luciferase (retrotransposition), replicates: 1.765 and 0.7621 and 1.278 and 1.259
[5]; HeLa cells
  Effect on L1 retrotransposition: some activity in the retrotransposition assay

## Cc1cc(=O)oc2c3c(ccc12)O/C(=N/Nc1ccc([N+](=O)[O-])cc1[N+](=O)[O-])C3=O [AD5]
[1]
  PrestoBlue (viability), average: 15.98
[2]
  Binding Detected? (Y/N): N
[3]
  APE1 percent activity, Replicate 1: 111.351%
  APE1 percent activity, Replicate 2: 107.526%
  APE1 percent activity, Replicate 3: 109.094%
  APE1 percent activity, average: 109.324%
  activity at 25 µM: 109 ± 1.9%
[4]; 0.5 µM
  EN activity, percent of no inhibitor control: 83.4432% and 74.5276%
[4]; 2 µM
  EN activity, percent of no inhibitor control: 70.978% and 73.9003%
[4]; 5 µM
  EN activity, percent of no inhibitor control: 74.0185% and 75.6649%
[4]; 10 µM
  EN activity, percent of no inhibitor control: 77.2953% and 59.874% and 46.95%
[4]; 25 µM
  EN activity, percent of no inhibitor control: 51.0006% and 46.7642%
[4]; 100 µM
  EN activity, percent of no inhibitor control: 9.806% and 12.2088%
[4]; 250 µM
  EN activity, percent of no inhibitor control: 10.849% and 15.1279%
[4]; 500 µM
  EN activity, percent of no inhibitor control: 8.917% and 12.6828%
[4]; [20]
  remaining activity at 0.5 µM: 82.5%
  remaining activity at 2 µM: 78.9%
  remaining activity at 5 µM: 74.7%
  remaining activity at 25 µM: 46.1%
  remaining activity at 100 µM: 7.29%
  remaining activity at 250 µM: 12%
  remaining activity at 500 µM: 9.9%
[5]
  Effect on L1 retrotransposition: did not significantly impact retrotransposition
  Luciferase (retrotransposition), average: 7.139
  Luciferase (retrotransposition), replicates: 5.447 and 9.3633 and 6.616 and 7.129

## O=C(Cn1nc(-c2ccc(Br)cc2)ccc1=O)NC[C@H]1CC[C@H](C(=O)O)CC1 [AD43]
[1]; 48 h, 50 μM
  PrestoBlue (viability), average: 6.621
[2]
  Binding Detected? (Y/N): N
[3]
  Percent APE1 activity, average: 116.3%
  Percent APE1 activity, replicates: 119.605% and 105.469% and 123.903%
[3]; compound at 25 μM, Replicate 1
  APE1 percent activity, Replicate 1: 116.306%
[3]; compound at 25 μM, Replicate 2
  APE1 percent activity, Replicate 2: 108.363%
[3]; compound at 25 μM, Replicate 3
  APE1 percent activity, Replicate 3: 123.152%
[3]; [6]
  APE1 percent activity, average: 115.94%
[3]; [7]
  activity at 25 µM: 116 ± 7.4%
[4]; [8]
  EN activity, percent of no inhibitor control: 82.7533% and 93.1928% and 121.814%
[4]; [9]
  EN activity, percent of no inhibitor control: 125.36% and 146.969% and 130.066%
[4]; [21]
  EN activity, percent of no inhibitor control: 105.857% and 111.128%
[4]; [Inhibitor] 50 μM, technical replicates 1-3, Fig. 2b source data, read-out: EN activity, percent of no inhibitor control
  remaining activity at 50 µM: 117%
[4]; [11]
  EN activity, percent of no inhibitor control: 119.496% and 103.054%
[4]; [12]
  remaining activity at 100 µM: 106%
[4]; [13]
  EN activity, percent of no inhibitor control: 70.4269% and 99.2352% and 82.7621%
[4]; [15]
  EN activity, percent of no inhibitor control: 75.3754% and 92.6354%
[4]; [16]
  remaining activity at 500 µM: 82.7%
[4]; [17]
  EN activity, percent of no inhibitor control: 36.4624% and 21.4688%
[4]; [18]
  remaining activity at 1000 µM: 31.2%
[4]; [19]
  EN activity, percent of no inhibitor control: -1.238% and -2.463% and -2.08%
[5]; Figure 4a Graph 5, 50μM, 0μM average 4.537
  Luciferase (retrotransposition), average: 2.141
[5]; Figure 4a Graph 5, 50μM, Replicates 1-4, 0μM average 4.537
  Luciferase (retrotransposition), replicates: 2.066 and 2.337 and 2.1059 and 2.055
[5]; HeLa cells
  Effect on L1 retrotransposition: some activity in the retrotransposition assay

## C[C@H]1C[C@H](C)CN(CCCNc2ccc(C(=O)Nc3ccc(C(F)(F)F)cc3)cc2[N+](=O)[O-])C1 [AD9]
[1]; 48 h, 50 μM
  PrestoBlue (viability), average: 17.51
[2]
  Binding Detected? (Y/N): N
[3]
  Percent APE1 activity, average: 100.1%
  Percent APE1 activity, replicates: 118.893% and 92.7882% and 88.5535%
[3]; compound at 25 μM, Replicate 1
  APE1 percent activity, Replicate 1: 119.501%
[3]; compound at 25 μM, Replicate 2
  APE1 percent activity, Replicate 2: 114.522%
[3]; compound at 25 μM, Replicate 3
  APE1 percent activity, Replicate 3: 113.798%
[3]; [6]
  APE1 percent activity, average: 115.94%
[3]; [7]
  activity at 25 µM: 116 ± 3.1%
[4]; [Inhibitor] 2 μM, technical replicates 1-3, Fig. 2b source data, 2 µM
  EN activity, percent of no inhibitor control: 91.056% and 80.4005%
[4]; [Inhibitor] 2 μM, technical replicates 1-3, Fig. 2b source data, read-out: EN activity, percent of no inhibitor control
  remaining activity at 2 µM: 100%
[4]; [Inhibitor] 10 μM, technical replicates 1-3, Fig. 2b source data, 10 µM
  EN activity, percent of no inhibitor control: 101.14% (2×) and 73.8761%
[4]; [9]
  EN activity, percent of no inhibitor control: 96.0191%
[4]; [10]
  remaining activity at 25 µM: 109%
[4]; [21]
  EN activity, percent of no inhibitor control: 139.387% and 77.4751% and 117.995%
[4]; [11]
  EN activity, percent of no inhibitor control: 89.4903%
[4]; [12]
  remaining activity at 100 µM: 85.7%
[4]; [13]
  EN activity, percent of no inhibitor control: 70.6219%
[4]; [14]
  remaining activity at 250 µM: 83.4%
[4]; [15]
  EN activity, percent of no inhibitor control: 47.0918%
[4]; [16]
  remaining activity at 500 µM: 45.2%
[4]; [17]
  EN activity, percent of no inhibitor control: 38.5425%
[4]; [18]
  remaining activity at 1000 µM: 31.3%
[4]; [Inhibitor] 2000 μM, technical replicates 1-3, Fig. 2b source data, 2000 µM
  EN activity, percent of no inhibitor control: 14.4137%
[4]; [Inhibitor] 2000 μM, technical replicates 1-3, Fig. 2b source data, read-out: EN activity, percent of no inhibitor control
  remaining activity at 2000 µM: 28.7%
[5]; 0.2 μM inhibitor, Figure 4b concentration-dependent inhibition
  L1 retrotransposition, average: 1.898
[5]; 0.5 μM inhibitor, Figure 4b
  L1 retrotransposition, average: 2.458
[5]; 1 μM inhibitor, Figure 4b
  L1 retrotransposition, average: 2.133
[5]; 5 μM inhibitor, Figure 4b
  L1 retrotransposition, average: 1.566
[5]; 10 μM inhibitor, Figure 4b
  L1 retrotransposition, average: 0.7154
[5]; 20 μM inhibitor, Figure 4b
  L1 retrotransposition, average: 1.222
[5]; 35 μM inhibitor, Figure 4b
  L1 retrotransposition, average: 0.4788
[5]; Figure 4a Graph 2, 50 μM, 0 μM average 9.679
  Luciferase (retrotransposition), average: 2.116
[5]; Figure 4a Graph 2, 50 μM, Replicates 1-4, 0 μM average 9.679
  Luciferase (retrotransposition), replicates: 3.949 and 1.344 and 2.584 and 0.5874
[5]; HeLa cells
  Effect on L1 retrotransposition: some activity in the retrotransposition assay
